Experimental data from the Kinase Knowledgebase extract (Sharma et al. 2016).
pIC50: −log10 of the molar value.

Molecular target: PIK3CG (human) (UniProt P48736)
Assay: Assessment of PIK3CG Kinase Activity

PIK3CG (human), sequence (P48736 whole entry, looked up): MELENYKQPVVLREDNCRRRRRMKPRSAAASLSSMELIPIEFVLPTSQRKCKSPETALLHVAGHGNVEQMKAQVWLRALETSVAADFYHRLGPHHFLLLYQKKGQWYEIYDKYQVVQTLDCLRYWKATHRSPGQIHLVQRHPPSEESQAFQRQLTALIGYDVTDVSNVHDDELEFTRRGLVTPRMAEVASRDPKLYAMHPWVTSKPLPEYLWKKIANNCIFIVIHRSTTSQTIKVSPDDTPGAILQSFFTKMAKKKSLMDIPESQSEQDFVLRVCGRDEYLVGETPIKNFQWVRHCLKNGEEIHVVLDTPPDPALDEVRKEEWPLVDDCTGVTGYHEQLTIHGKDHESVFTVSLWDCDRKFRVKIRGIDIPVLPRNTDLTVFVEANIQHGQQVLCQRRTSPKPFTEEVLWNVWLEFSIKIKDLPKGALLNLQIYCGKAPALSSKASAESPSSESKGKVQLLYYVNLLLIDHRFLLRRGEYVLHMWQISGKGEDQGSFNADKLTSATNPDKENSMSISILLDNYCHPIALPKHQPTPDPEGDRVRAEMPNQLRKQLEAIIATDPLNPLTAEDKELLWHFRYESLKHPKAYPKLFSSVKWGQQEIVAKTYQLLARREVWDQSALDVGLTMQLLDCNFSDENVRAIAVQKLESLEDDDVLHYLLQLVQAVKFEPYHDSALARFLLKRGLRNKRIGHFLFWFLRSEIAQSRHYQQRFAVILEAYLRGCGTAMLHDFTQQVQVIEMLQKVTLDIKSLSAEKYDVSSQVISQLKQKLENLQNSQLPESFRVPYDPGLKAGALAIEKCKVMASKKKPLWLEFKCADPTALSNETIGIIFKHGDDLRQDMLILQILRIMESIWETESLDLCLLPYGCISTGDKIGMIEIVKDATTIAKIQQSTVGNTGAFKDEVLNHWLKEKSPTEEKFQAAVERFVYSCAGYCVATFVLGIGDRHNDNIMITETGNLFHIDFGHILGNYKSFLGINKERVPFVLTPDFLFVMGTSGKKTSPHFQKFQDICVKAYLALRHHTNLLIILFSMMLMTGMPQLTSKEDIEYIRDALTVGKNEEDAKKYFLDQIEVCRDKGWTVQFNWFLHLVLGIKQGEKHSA

| SMILES | pIC50 |
| --- | --- |
| CC(=O)Nc1nc2c(s1)-c1c(cnn1-c1ccc(C(=O)NCCCCCCNC(=O)c3ccccc3)cc1)CC2 | > 6.10 |
| CC(=O)Nc1nc2c(s1)-c1c(cnn1-c1ccc(C)cc1)C2 | > 6.10 |
| CN(C)C(=O)Nc1nc2c(s1)-c1c(cnn1-c1ccccc1)CC2 | > 6.10 |
| CC(=O)Nc1nc2c(s1)-c1c(c(C(C)C)nn1-c1ccc(C(=O)O)cc1Cl)CC2 | > 6.10 |
| CC(=O)Nc1nc2c(s1)-c1c(cnn1-c1ccc(C(=O)N3CCC(O)CC3)cc1)CC2 | > 6.10 |
| CC(=O)Nc1nc2c(s1)-c1c(cnn1-c1ncccn1)CC2 | > 6.10 |
| CC(=O)Nc1nc2c(s1)-c1c(cnn1-c1cc(Cl)ccc1Cl)CC2 | > 6.10 |
| CC(=O)Nc1nc2c(s1)-c1c(c(-c3ccccc3)nn1-c1ccccc1Cl)CC2 | > 6.10 |
| CC(=O)Nc1nc2c(s1)-c1c(cnn1-c1ccc(Br)cc1)CC2 | > 6.10 |
| CCN1CCCC(NC(=O)c2ccc(-n3ncc4c3-c3sc(NC(C)=O)nc3CC4)cc2)C1 (stereo unspecified) | > 6.10 |
| CN1CCN(C(=O)Nc2nc3c(s2)-c2nc(-c4ccccc4)ncc2CC3)CC1 | > 6.10 |
| CC(=O)Nc1nc2c(s1)-c1nc(-c3c(Cl)cccc3Cl)ncc1CC2 | > 6.10 |
| CC(=O)Nc1nc2c(s1)-c1c(cnn1-c1ccc(C(=O)NC(C)(C)CN3CCCCC3)cc1)CC2 | > 6.10 |
| CC(=O)Nc1nc2c(s1)-c1c(cnn1-c1ccc(C(=O)N3CCC(N4CCOCC4)CC3)cc1Cl)CC2 | > 6.10 |
| CC(=O)Nc1nc2c(s1)-c1c(cnn1-c1cccc(F)c1)CC2 | > 6.10 |
| CC(=O)Nc1nc2c(s1)-c1c(cnn1-c1ccc3ccccc3c1)CC2 | > 6.10 |
| CC(=O)Nc1nc2c(s1)-c1nc(CCc3ccccc3)ncc1CC2 | > 6.10 |
| CC(=O)Nc1nc2c(s1)-c1c(c(-c3cn(C)cn3)nn1-c1ccccc1)CC2 | > 6.10 |
| CC(=O)Nc1nc2c(s1)-c1c(cnn1-c1ccc(C(=O)Nc3ccc(NC(C)(C)CN(C)C)cc3)cc1)CC2 | > 6.10 |
| CC(=O)Nc1nc2c(s1)-c1c(c(C(=O)N3CCSC3)nn1-c1ccccc1)CC2 | > 6.10 |
| CC(=O)Nc1nc2c(s1)-c1c(cnn1-c1ccc(C#N)cc1)CC2 | > 6.10 |
| CC(=O)Nc1nc2c(s1)-c1nc(N3CCCC(CNC(=O)OC(C)(C)C)C3)ncc1CC2 (stereo unspecified) | > 6.10 |
| CC(=O)Nc1nc2c(s1)-c1c(cnn1-c1ccc3nc[nH]c3c1)CC2 | > 6.10 |
| CC(=O)Nc1nc2c(s1)-c1c(cnn1-c1ccc(C(=O)N[C@@H]3CCOC3=O)cc1)CC2 | > 6.10 |

| SMILES | pIC50 |
| --- | --- |
| CC(=O)Nc1nc2c(s1)-c1c(cnn1-c1ccc(C(=O)NCCc3cn[nH]c3)cc1)CC2 | > 6.10 |
| COCc1nn(-c2ccc(C(=O)N(C)Cc3ccncc3)cc2Cl)c2c1CCc1nc(NC(C)=O)sc1-2 | > 6.10 |
| CC(=O)Nc1nc2c(s1)-c1nc(N(CCN(C)C)C(C)=O)ncc1CC2 | > 6.10 |
| CC(=O)Nc1nc2c(s1)-c1nc(N3CCCC(CN)C3)ncc1CC2 (stereo unspecified) | > 6.10 |
| CC(=O)Nc1nc2c(s1)-c1c(cnn1-c1ccc(C(=O)N3CCCC(CO)C3)cc1)CC2 (stereo unspecified) | > 6.10 |
| CC(=O)Nc1nc2c(s1)-c1nc(N(C)CCN(C)C)ncc1CC2 | > 6.10 |
| CC(=O)Nc1nc2c(s1)-c1c(c([C@H]3CCCO3)nn1-c1ccccc1Cl)CC2 | > 6.10 |
| CC(=O)Nc1nc2c(s1)-c1c(cnn1-c1ccc(C(=O)N3CCC(N)CC3)cc1)CC2 | > 6.10 |
| CN(C)CCCC(=O)Nc1nc2c(s1)-c1c(c(-c3ccccc3)nn1-c1ccccc1Cl)CC2 | > 6.10 |
| CCN(CC)CC1CCCCN1C(=O)c1ccc(-n2ncc3c2-c2sc(NC(C)=O)nc2CC3)cc1 (stereo unspecified) | > 6.10 |
| CC(=O)Nc1nc2c(s1)-c1nc(N3CCOCC3)ncc1CC2 | > 6.10 |
| CC(=O)Nc1nc2c(s1)-c1c(cnn1-c1ccc(CC(=O)O)cc1)CC2 | > 6.10 |
| CC(=O)Nc1ncc2c(n1)-c1sc(NC(C)=O)nc1CC2 | > 6.10 |
| CC(=O)Nc1nc2c(s1)-c1c(cnn1-c1ccc(CC(=O)N3CCN(C(C)=O)CC3)cc1)CC2 | > 6.10 |
| CC(=O)Nc1nc2c(s1)-c1c(c(-c3ccccn3)nn1-c1ccccc1C(F)(F)F)CC2 | > 6.10 |
| CC(=O)Nc1nc2c(s1)-c1c(cnn1-c1ccc(C(=O)NCc3ccccc3O)cc1)CC2 | > 6.10 |
| CC(=O)Nc1nc2c(s1)-c1c(cnn1-c1ccc(C(=O)N3CCC[C@@H]3C(N)=O)cc1)CC2 | > 6.10 |
| CC(=O)Nc1nc2c(s1)-c1c(cnn1-c1ccc(C(=O)NCCCN(C)C)cc1)CC2 | > 6.10 |
| O=C(CO)Nc1nc2c(s1)-c1c(cnn1-c1ccccc1)CC2 | > 6.10 |
| CC(=O)Nc1nc2c(s1)-c1c(cnn1-c1ccc(C(=O)O)cc1Cl)CC2 | > 6.10 |
| CC(=O)Nc1nc2c(s1)-c1nc(C)ncc1CC2 | > 6.10 |
| CC(=O)Nc1nc2c(s1)-c1c(cnn1-c1ccc(C(=O)N[C@H](CCCCNC(=N)N)C(N)=O)cc1Cl)CC2 | > 6.10 |
| CC(=O)Nc1nc2c(s1)-c1c(cnn1C(=O)C(C)C)CC2 | > 6.10 |
| CC(=O)Nc1nc2c(s1)-c1c(cnn1-c1ccncc1)CC2 | > 6.10 |

| SMILES | pIC50 |
| --- | --- |
| CC(=O)Nc1nc2c(s1)-c1c(cnn1-c1cccc(Br)c1)CC2 | > 6.10 |
| CC(=O)Nc1nc2c(s1)-c1c(cnn1-c1ccc(CC(=O)N(C)C)cc1)CC2 | > 6.10 |
| CC(=O)Nc1nc2c(s1)-c1nn(-c3ccc(C(=O)N[C@H]4CC[C@H](N5CCCC5)CC4)cc3)c(-c3ccco3)c1CC2 | > 6.10 |
| CC(=O)Nc1nc2c(s1)-c1c(cnn1-c1ccc(S(N)(=O)=O)cc1)CC2 | > 6.10 |
| CC(=O)Nc1nc2c(s1)-c1c(c(-c3ccco3)nn1-c1ccc(Br)cc1C(F)(F)F)CC2 | > 6.10 |
| CC(=O)Nc1nc2c(s1)-c1c(cnn1-c1ccc(C(=O)NCCC(=O)O)cc1)CC2 | > 6.10 |
| CC(=O)Nc1nc2c(s1)-c1nc(-c3ccccc3)[nH]c(=O)c1CC2 | > 6.10 |
| CC(=O)Nc1nc2c(s1)-c1c(cnn1-c1ccc(S(=O)(=O)N(C)CCN(C)C)cc1)CC2 | > 6.10 |
| CC(=O)Nc1nc2c(s1)-c1c(cnn1-c1ccc(C(=O)N[C@@H](Cc3cccc(Cl)c3)C(N)=O)cc1Cl)CC2 | > 6.10 |
| CC(=O)Nc1nc2c(s1)-c1nc(N3CCCC(C)(C)C3)ncc1CC2 | > 6.10 |
| CN(C)CCCC(=O)Nc1nc2c(s1)-c1nc(-c3ccccc3)ncc1CC2 | > 6.10 |
| CC(=O)Nc1nc2c(s1)-c1c(cnn1-c1ccc(Cl)cc1Cl)CC2 | > 6.10 |
| CC(=O)Nc1nc2c(s1)-c1nc(-c3ccc(C(=O)N(C)C)cc3)ncc1CC2 | > 6.10 |
| CC(=O)Nc1nc2c(s1)-c1c(cnn1-c1ccc(C(=O)N[C@H]3CC[C@H](N4CCN(c5ccccc5)CC4)CC3)cc1)CC2 | > 6.10 |
| CC(=O)Nc1nc2c(s1)-c1c(cnn1-c1ccc(C(=O)N[C@@H](CCc3ccccc3)C(N)=O)cc1Cl)CC2 | > 6.10 |
| CC(=O)Nc1nc2c(s1)-c1nn(C(=O)C(C)C)cc1CC2 | > 6.10 |
| COc1cc(OC)cc(-c2ncc3c(n2)-c2sc(NC(C)=O)nc2CC3)c1 | > 6.10 |
| O=C(NCCN1CCOCC1)Nc1nc2c(s1)-c1c(cnn1-c1ccccc1)CC2 | > 6.10 |
| CC(=O)Nc1nc2c(s1)-c1nc(N(C)C)ncc1CC2 | > 6.10 |
| CC(=O)Nc1nc2c(s1)-c1c(cnn1CCC(C)C)CC2 | > 6.10 |
| CC(=O)Nc1nc2c(s1)-c1c(cnn1-c1ccc(CC(=O)NCCN3CCNC3=O)cc1)CC2 | > 6.10 |
| COC(=O)c1nn(-c2ccccc2C)c2c1CCc1nc(NC(C)=O)sc1-2 | > 6.10 |
| CC(=O)Nc1nc2c(s1)-c1c(cnn1-c1ccc(CC(=O)NCC#Cc3ccncc3)cc1)CC2 | > 6.10 |
